Experimental findings from ChEMBL document CHEMBL1145498, “A systematic interaction map of validated kinase inhibitors with Ser/Thr kinases” (Proc Natl Acad Sci U S A, 2007) are described below.

For assay [1], the target named is T1, Dual specificity mitogen-activated protein kinase kinase 6 (Homo sapiens) (UniProt P52564).
T1 sequence (whole entry): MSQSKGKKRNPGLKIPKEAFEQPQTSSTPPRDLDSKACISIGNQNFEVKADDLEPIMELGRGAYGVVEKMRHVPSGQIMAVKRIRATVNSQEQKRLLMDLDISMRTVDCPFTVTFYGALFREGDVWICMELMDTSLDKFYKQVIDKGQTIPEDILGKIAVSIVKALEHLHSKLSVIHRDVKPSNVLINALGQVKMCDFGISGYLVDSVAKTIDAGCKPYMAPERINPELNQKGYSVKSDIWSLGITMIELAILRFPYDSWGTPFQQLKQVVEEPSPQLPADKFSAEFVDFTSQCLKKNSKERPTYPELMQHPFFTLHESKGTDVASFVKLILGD

Assay [2] deals with Serine/threonine-protein kinase PAK 5 (Homo sapiens) (UniProt Q9P286).
Sequence of Serine/threonine-protein kinase PAK 5 (Homo sapiens) (Q9P286 whole entry, looked up): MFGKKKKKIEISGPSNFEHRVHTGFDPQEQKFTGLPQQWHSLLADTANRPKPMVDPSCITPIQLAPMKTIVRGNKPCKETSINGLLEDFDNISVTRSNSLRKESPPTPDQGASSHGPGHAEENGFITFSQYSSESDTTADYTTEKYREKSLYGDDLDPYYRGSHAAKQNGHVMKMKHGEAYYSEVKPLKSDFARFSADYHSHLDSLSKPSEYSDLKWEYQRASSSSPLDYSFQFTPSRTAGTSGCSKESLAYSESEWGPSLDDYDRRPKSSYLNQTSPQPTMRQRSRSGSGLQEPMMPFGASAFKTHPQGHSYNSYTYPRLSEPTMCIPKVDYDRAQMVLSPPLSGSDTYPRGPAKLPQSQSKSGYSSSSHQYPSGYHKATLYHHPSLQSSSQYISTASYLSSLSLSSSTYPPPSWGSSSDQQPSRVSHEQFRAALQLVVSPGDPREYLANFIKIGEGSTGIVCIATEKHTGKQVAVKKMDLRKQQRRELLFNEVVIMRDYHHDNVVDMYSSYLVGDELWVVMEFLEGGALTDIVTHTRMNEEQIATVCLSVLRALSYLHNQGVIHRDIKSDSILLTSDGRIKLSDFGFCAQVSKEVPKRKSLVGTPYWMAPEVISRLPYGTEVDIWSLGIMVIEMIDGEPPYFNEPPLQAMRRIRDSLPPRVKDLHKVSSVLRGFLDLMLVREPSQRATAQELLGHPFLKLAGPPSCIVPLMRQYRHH
Assay [3] concerns the target 5'-AMP-activated protein kinase catalytic subunit alpha-2 (Homo sapiens) (UniProt P54646).
The target in assay [4] is Serine/threonine-protein kinase RIO2 (Homo sapiens) (UniProt Q9BVS4).
Sequence of Serine/threonine-protein kinase RIO2 (Homo sapiens) (Q9BVS4 whole entry, looked up): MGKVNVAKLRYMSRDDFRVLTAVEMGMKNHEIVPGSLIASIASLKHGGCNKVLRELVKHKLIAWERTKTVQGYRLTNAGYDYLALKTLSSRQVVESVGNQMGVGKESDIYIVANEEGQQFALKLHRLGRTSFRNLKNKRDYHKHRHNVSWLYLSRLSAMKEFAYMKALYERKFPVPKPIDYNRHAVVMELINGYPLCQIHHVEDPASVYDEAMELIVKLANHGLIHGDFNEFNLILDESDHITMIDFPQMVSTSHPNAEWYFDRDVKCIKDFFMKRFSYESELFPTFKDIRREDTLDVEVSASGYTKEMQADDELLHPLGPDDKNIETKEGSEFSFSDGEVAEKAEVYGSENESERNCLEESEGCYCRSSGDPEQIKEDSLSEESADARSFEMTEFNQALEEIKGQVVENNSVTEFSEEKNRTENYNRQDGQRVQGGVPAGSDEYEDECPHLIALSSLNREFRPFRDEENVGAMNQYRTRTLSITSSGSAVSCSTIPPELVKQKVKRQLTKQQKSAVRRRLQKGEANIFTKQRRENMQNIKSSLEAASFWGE
In assay [5] the target is Cyclin-dependent kinase 2 (Homo sapiens, UniProt P24941).
In assay [6] the target is Calcium/calmodulin-dependent protein kinase type 1G (Homo sapiens) (UniProt Q96NX5).
Sequence of Calcium/calmodulin-dependent protein kinase type 1G (Homo sapiens) (Q96NX5 whole entry): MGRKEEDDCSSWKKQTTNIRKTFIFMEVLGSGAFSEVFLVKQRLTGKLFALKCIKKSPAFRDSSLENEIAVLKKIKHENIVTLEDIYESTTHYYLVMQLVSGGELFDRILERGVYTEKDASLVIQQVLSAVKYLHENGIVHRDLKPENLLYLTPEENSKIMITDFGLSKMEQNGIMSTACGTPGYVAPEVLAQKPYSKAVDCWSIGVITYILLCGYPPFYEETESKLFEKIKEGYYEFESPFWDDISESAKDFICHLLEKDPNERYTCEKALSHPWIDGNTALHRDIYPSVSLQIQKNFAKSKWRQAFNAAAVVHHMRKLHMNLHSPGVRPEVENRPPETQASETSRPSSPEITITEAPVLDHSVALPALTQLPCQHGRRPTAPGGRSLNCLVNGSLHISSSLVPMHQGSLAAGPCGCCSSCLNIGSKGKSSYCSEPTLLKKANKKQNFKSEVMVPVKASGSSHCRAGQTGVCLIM
Assay [7] has as its target Serine/threonine-protein kinase 26 (Homo sapiens) (UniProt Q9P289).
Assay [8] addresses T2, Serine/threonine-protein kinase VRK3 (Homo sapiens) (UniProt Q8IV63).
T2 sequence (whole entry): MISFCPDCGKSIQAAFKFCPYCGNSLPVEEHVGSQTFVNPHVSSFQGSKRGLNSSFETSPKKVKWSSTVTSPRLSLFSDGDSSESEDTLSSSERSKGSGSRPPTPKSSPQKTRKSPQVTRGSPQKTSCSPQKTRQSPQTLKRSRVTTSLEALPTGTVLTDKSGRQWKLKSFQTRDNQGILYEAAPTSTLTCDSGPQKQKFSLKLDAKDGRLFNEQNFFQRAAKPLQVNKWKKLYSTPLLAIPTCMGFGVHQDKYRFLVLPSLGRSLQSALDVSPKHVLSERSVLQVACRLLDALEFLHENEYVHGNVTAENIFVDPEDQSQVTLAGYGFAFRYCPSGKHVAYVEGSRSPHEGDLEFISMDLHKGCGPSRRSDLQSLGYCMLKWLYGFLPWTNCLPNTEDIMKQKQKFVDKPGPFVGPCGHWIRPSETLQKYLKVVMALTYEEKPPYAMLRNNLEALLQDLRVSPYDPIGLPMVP

The target of assay [9] is Serine/threonine-protein kinase 25 (Homo sapiens) (UniProt O00506).
Sequence of Serine/threonine-protein kinase 25 (Homo sapiens) (O00506 whole entry, looked up): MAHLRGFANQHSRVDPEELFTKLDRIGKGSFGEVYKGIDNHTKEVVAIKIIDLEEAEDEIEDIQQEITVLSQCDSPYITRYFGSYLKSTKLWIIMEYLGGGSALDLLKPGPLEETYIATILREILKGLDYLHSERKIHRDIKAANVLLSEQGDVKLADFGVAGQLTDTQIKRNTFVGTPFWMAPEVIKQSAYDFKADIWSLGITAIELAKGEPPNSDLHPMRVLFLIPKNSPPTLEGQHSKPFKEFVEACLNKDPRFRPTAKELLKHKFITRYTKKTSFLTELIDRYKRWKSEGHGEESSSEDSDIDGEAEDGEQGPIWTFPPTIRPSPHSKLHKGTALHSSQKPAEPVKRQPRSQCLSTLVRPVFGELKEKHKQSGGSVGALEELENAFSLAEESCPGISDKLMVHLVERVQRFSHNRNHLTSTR
The target of assay [10] is Calcium/calmodulin-dependent protein kinase type 1D (Homo sapiens) (UniProt Q8IU85).
Sequence of Calcium/calmodulin-dependent protein kinase type 1D (Homo sapiens) (Q8IU85 whole entry, looked up): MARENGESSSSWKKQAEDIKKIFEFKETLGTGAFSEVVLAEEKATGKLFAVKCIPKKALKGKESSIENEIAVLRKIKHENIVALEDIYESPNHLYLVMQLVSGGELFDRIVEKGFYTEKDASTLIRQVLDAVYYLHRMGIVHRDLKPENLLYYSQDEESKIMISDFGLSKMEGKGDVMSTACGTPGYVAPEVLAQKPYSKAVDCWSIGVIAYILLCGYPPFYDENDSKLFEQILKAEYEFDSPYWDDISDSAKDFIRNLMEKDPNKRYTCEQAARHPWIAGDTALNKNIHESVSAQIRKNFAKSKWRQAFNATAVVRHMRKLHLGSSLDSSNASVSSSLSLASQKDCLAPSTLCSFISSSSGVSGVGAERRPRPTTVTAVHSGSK
For assay [11], the target named is Serine/threonine-protein kinase 16 (Homo sapiens) (UniProt O75716).
Sequence of Serine/threonine-protein kinase 16 (Homo sapiens) (O75716 whole entry): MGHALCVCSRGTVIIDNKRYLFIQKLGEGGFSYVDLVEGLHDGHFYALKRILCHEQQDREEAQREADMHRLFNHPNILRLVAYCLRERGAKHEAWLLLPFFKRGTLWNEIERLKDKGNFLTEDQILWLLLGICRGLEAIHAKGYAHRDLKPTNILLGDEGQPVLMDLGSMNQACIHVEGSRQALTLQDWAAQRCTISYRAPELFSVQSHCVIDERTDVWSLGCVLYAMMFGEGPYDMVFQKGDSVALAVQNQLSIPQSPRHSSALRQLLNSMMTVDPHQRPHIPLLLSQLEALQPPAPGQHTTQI
For assay [12], the target named is T3, Serine/threonine-protein kinase Nek2 (Homo sapiens) (UniProt P51955).
T3 sequence (whole entry): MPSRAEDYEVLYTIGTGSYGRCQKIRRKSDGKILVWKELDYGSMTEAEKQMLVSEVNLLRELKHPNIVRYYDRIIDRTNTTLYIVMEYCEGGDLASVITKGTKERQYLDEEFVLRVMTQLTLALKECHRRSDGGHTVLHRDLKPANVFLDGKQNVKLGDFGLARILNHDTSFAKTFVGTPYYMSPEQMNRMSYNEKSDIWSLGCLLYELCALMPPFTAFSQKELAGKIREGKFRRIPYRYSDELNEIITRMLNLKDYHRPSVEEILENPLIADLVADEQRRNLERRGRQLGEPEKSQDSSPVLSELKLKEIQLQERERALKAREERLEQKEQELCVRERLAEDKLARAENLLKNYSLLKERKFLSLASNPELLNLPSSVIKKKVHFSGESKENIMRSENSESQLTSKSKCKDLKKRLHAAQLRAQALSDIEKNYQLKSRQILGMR

In assay [13] the target is Serine/threonine-protein kinase OSR1 (Homo sapiens) (UniProt O95747).
Sequence of Serine/threonine-protein kinase OSR1 (Homo sapiens) (O95747 2-527 limits assumed): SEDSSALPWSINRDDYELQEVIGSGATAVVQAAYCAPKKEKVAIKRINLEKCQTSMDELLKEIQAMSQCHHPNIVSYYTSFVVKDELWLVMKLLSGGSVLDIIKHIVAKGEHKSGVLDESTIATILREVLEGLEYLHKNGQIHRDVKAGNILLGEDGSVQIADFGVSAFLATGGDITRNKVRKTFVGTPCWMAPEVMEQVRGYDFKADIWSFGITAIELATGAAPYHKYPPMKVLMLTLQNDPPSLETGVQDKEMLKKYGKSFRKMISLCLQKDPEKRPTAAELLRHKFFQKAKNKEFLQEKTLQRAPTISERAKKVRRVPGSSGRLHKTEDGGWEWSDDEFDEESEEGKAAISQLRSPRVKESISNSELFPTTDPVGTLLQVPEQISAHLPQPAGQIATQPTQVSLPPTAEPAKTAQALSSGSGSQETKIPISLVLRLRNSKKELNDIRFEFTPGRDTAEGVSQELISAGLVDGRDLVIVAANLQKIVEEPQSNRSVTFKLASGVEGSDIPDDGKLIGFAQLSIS
The target in assay [14] is T4, Serine/threonine-protein kinase PLK4 (Homo sapiens) (UniProt O00444).
T4 sequence (whole entry): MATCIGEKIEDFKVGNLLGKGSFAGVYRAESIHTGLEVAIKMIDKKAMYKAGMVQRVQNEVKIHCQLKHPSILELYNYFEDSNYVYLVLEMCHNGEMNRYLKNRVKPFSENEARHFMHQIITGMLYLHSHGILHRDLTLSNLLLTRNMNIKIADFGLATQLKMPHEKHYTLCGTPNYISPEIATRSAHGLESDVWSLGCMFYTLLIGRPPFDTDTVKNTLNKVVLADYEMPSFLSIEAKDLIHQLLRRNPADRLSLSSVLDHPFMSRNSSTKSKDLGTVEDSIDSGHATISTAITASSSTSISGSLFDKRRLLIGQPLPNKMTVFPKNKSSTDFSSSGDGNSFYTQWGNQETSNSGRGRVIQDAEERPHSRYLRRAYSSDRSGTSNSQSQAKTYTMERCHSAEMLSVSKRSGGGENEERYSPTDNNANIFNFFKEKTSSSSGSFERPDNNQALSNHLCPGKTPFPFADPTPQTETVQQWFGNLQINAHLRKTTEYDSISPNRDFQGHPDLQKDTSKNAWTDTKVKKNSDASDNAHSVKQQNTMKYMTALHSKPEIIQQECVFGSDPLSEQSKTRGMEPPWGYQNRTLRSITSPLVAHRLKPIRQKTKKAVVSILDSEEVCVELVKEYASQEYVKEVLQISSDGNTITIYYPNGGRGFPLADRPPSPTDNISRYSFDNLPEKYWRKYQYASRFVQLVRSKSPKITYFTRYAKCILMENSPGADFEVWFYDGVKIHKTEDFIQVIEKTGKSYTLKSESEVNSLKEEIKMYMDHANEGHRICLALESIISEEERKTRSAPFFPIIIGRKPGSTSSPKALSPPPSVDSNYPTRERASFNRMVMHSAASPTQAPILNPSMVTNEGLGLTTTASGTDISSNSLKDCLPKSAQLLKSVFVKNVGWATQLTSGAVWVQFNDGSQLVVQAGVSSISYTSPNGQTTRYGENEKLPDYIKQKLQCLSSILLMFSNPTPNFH

Assay [15] addresses Dual specificity protein kinase CLK2 (Homo sapiens) (UniProt P49760).

Sequence of 5'-AMP-activated protein kinase catalytic subunit alpha-2 (Homo sapiens) (P54646 whole entry, looked up): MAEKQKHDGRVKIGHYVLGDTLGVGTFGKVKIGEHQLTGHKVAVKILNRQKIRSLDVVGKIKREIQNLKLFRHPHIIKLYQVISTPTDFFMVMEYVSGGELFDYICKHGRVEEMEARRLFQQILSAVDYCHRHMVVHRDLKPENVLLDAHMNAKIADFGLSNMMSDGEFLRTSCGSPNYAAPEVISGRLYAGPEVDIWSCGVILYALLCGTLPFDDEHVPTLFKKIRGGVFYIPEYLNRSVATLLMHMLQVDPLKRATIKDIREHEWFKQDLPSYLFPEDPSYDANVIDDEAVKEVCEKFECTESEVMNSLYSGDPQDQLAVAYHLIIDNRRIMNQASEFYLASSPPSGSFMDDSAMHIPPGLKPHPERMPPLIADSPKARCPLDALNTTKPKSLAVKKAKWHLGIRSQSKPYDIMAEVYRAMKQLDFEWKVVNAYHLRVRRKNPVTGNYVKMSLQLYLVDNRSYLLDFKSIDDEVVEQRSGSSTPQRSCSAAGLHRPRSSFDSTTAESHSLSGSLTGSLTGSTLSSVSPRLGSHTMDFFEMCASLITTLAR
Sequence of Serine/threonine-protein kinase 26 (Homo sapiens) (Q9P289 2-416 limits assumed): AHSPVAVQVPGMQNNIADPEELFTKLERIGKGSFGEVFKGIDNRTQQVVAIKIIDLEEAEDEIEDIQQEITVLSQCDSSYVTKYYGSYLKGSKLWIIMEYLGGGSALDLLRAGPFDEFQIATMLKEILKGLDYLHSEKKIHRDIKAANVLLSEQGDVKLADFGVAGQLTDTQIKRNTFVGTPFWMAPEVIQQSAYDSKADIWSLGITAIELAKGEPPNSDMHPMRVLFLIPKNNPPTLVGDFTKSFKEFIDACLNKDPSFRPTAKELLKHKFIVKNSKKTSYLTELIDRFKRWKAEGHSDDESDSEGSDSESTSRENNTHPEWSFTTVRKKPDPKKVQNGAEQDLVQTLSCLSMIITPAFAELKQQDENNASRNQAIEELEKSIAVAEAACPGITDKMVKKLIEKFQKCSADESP
Sequence of Dual specificity protein kinase CLK2 (Homo sapiens) (P49760 whole entry, looked up): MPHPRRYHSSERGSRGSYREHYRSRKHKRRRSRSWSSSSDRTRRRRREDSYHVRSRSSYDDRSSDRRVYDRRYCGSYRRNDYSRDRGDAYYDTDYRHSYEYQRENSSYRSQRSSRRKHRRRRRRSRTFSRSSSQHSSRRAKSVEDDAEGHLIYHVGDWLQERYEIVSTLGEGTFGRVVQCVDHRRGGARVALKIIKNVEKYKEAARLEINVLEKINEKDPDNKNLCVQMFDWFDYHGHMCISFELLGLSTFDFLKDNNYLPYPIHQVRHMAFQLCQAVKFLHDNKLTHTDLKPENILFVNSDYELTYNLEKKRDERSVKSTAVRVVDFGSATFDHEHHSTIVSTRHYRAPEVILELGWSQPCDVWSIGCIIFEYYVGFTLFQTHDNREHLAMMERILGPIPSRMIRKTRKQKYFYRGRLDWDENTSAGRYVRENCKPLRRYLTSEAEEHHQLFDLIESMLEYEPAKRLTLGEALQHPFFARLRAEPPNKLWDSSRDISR

As a reminder, the ΔTm is the shift of the melting midpoint relative to a reference. On to `O=C1NC(=O)C(c2c[nH]c3ccccc23)=C1c1c[nH]c2ccccc12`, for which the ΔTm in [1] was found to be 1.1 °C; in assay [2], 0.6 °C; in [3], 1.2 °C; in [4] it was 0 °C; in assay [5], 1.5 °C; in [6], 1 °C. In addition, the ΔTm is 0.9 °C in [7]; 1.2 °C in [8]; 2 °C in assay [9]; 0.6 °C in [10]; 3.5 °C in assay [11]; 1.9 °C in assay [12]. For the same molecule, the ΔTm in assay [13] was found to be 2 °C; in assay [14], 4.2 °C; in assay [15], 2.5 °C.

`O=[N+]([O-])c1ccc(-c2nc(-c3ccc(F)cc3)c(-c3ccncc3)[nH]2)cc1`: the ΔTm in assay [1] is 0 °C; in assay [2] it was 1 °C; in assay [3], -0.4 °C; in assay [4], 2.5 °C; in assay [5] it was 1.8 °C; in [6], -0.2 °C. For the same molecule, the ΔTm in [7] is 0.7 °C; in [8], 0.4 °C; in [9], 0.9 °C; in [10], 0.2 °C; in [11] it was 0.5 °C; in [12], -0.5 °C. The ΔTm in assay [13] was -0.3 °C; in [14], 1.8 °C; in assay [15], 0.1 °C.

On to `CC(C)(C)c1cc(C=C2C(=O)C=CC2=O)cc(C(C)(C)C)c1O`, for which the ΔTm in assay [1] is -2.5 °C; in [2], 0.2 °C; in assay [3] it was -0.1 °C; in [4], 0.3 °C; in [5] it was 1.2 °C; in assay [6], -0.4 °C. Also, the ΔTm in assay [7] was 0.5 °C; in assay [8], -0.2 °C; in assay [9] it was 0.6 °C; in assay [10] it was -2.2 °C; in assay [11] it was 0.2 °C; in [12], 1.1 °C. Besides, the figures for the ΔTm in [13], in assay [14] and in [15] were 0.3 °C, 1 °C and 0.4 °C, respectively.

Turning to `OC[C@H]1O[C@@H](n2cnc3cc(Cl)c(Cl)cc32)[C@H](O)[C@@H]1O`, the ΔTm in assay [1] is 0.2 °C; in [2] it was 0.2 °C; in assay [3], -0.7 °C; in assay [4], 0.7 °C; in [6], -0.1 °C; in [7] it was -0.3 °C. Also, the ΔTm in [8] was -0.2 °C; in [9], 0 °C; in [10], 0 °C; in assay [11], 1.1 °C; in assay [12], 0.5 °C; in assay [13], 0.4 °C. Besides, the ΔTm was 0.5 °C in [14] and 1.6 °C in assay [15].

Turning to `Cc1cncc2cccc(S(=O)(=O)N3CCCNC[C@@H]3C)c12`, the ΔTm in assay [1] is 0.4 °C; in assay [2] it was 0.5 °C; in assay [3] it was 1.7 °C; in assay [4], 0.4 °C; in assay [5], 0.7 °C; in assay [6] it was -0.1 °C. Moreover, the ΔTm is 1.5 °C in assay [7]; 0.4 °C in assay [8]; 1.1 °C in assay [9]; 0.9 °C in assay [10]; 1.1 °C in assay [11]; -0.2 °C in assay [12]. Also, the ΔTm turned out to be 0.6 °C in assay [13], 7 °C in assay [14] and 1.8 °C in [15].

`N#C/C(=C\c1ccc(O)c(O)c1)C(=O)Nc1ccccc1`: the ΔTm in assay [1] is 0.3 °C; in assay [2], 0.4 °C; in assay [3], -0.3 °C; in assay [4], 0.5 °C; in [5], 1.1 °C; in [6], 0.4 °C. Also, the ΔTm in assay [7] was 0.3 °C; in assay [8], 0 °C; in assay [9] it was 0.5 °C; in assay [10] it was 0.3 °C; in [11], 0.1 °C; in assay [12], 1.4 °C. Also, the results for the ΔTm in assay [13], in assay [14] and in assay [15] were 0.6 °C, 1.3 °C and 0.9 °C, respectively.
